Reference: patent US8044204B2, “8-methoxy-9H-isothiazolo[5,4-b]quinoline-3,4-diones and related compounds as anti-infective agents” (Achillion Pharmaceuticals, Inc., priority 2005, dated 2011)

Key:
E. coli ATCC 25922 = assay: Minimum Inhibitory Concentration (MIC) assay, E. coli; format: cell-based; settings: Escherichia coli, ATCC25922; broth microdilution; read-out: MIC against E. coli
Experimental: (§1) The antimicrobial activity of the compounds of the invention may be evaluated by a number of methods, including the following visual minimum inhibitory concentration (MIC) assay. This assay determines the minimum concentration of compound required to inhibit growth of a bacterial strain.
(§2) Minimum Inhibitory Concentration (MIC) Assay
(§3) Whole-cell antibacterial activity is determined by broth microdilution using conditions recommended by the NCCLS (see National Committee for Clinical Laboratory Standards. 2001. Performance standards for antimicrobial susceptibility testing: 11th informational supplement. Vol. 21, no. 1, M100-S11. National Committee for Clinical Laboratory Standards, Wayne, Pa.). Test compounds are dissolved in DMSO and diluted 1:50 in Mueller-Hinton II broth (Becton-Dickinson) to produce a 256 μg/ml stock solution. In a 96-well microtiter plate, the compound solution is serially two-fold diluted in Mueller-Hinton II broth. After the compounds are diluted, a 50 μl aliquot of the test organism (˜1×10^6 cfu/mL) is added to each well of the microtiter plate. The final test concentrations ranges from 0.125-128 μg/mL. Inoculated plates are incubated in ambient air at 37° C. for 18 to 24 hours. The organisms selected for testing included laboratory strains S. aureus ATCC 29213 and E. coli ATCC 25922 (strains purchased from American Type Culture Collection, Manassas, Va.), S. aureus FQR700699, and Paeruginosa 27853. The minimum inhibitory concentration (MIC) is determined as the lowest concentration of compound that inhibited visible growth of the test organism.

S. aureus ATCC 29213 = assay: Minimum Inhibitory Concentration (MIC) assay, S. aureus; format: cell-based; settings: Staphylococcus aureus, ATCC29213; broth microdilution; read-out: MIC against S. Aureus
Experimental: as §1, §2, §3

COc1c(N2CC[C@@H](CN(C)C)C2)c(F)cc2c(=O)c3c(=O)[nH]sc3n(C3CC3)c12 [Compound 86, (S)-9-cyclo-propyl-7-(3-((dimethyl-amino)methyl)pyrrolidin-1-yl)-6-fluoro-8-methoxyiso-thiazolo[5,4-b]quinoline-3,4(2H,9H)-dione]
MIC (E. coli ATCC 25922): ≤ 1 µg/mL | MIC (S. aureus ATCC 29213): ≤ 1 µg/mL

CCn1c2cc(N3CCSCC3)c(F)cc2c(=O)c2c(=O)[nH]sc21 [Compound 37, 9-ethyl-6-fluoro-7-thiomorpho-linoiso-thiazolo[5,4-b]quinoline-3,4(2H,9H)-dione]
MIC (E. coli ATCC 25922): ≤ 1 µg/mL | MIC (S. aureus ATCC 29213): ≤ 1 µg/mL

COc1c(N2C[C@@H]3CCCN[C@@H]3C2)c(F)cc2c(=O)c3c(=O)[nH]sc3n(C3CC3)c12 [Compound 69, 9-cyclopropyl-6-fluoro-8-methoxy-7-((4aS,7aS)-octahydro-pyrrolo[3,4-b]pyridin-6-yl)isothia-zolo[5,4-b]quinoline-3,4(2H,9H)-dione]
MIC (S. aureus ATCC 29213): ≤ 1 µg/mL

CN(C)C1CCN(c2cc3c(cc2F)c(=O)c2c(=O)[nH]sc2n3C2CC2)C1 (stereo not drawn) [Compound 22, 9-cyclopropyl-7-(3-(dimethyl-amino)pyrrolidin-1-yl)-6-fluoroiso-thiazolo[5,4-b]quinoline-3,4(2H,9H)-dione]
MIC (E. coli ATCC 25922): ≤ 1 µg/mL | MIC (S. aureus ATCC 29213): ≤ 1 µg/mL

CCn1c2cc(NCc3ccncc3)c(F)cc2c(=O)c2c(=O)[nH]sc21 [Compound 35, 9-ethyl-6-fluoro-7-(pyridin-4-ylmethylamino) isothiazolo[5,4-b]quinoline-3,4(2H,9H)-dione]
MIC (E. coli ATCC 25922): ≤ 1 µg/mL | MIC (S. aureus ATCC 29213): ≤ 1 µg/mL

O=c1[nH]sc2c1c(=O)c1cc(F)c(N3CCOCC3)cc1n2C1CC1 [Compound 19, 9-cyclopropyl-6-fluoro-7-morpholino-isothiazolo[5,4-b]quinoline-3,4(2H,9H)-dione]
MIC (E. coli ATCC 25922): ≤ 1 µg/mL | MIC (S. aureus ATCC 29213): ≤ 1 µg/mL

COc1c(N2CC[C@@H](CN)C2)ccc2c(=O)c3c(=O)[nH]sc3n(C3CC3)c12 [Compound 65, (S)-7-(3-(aminomethyl)-pyrrolidin-1-yl)-9-cyclopropyl-8-methoxyiso-thiazolo[5,4-b]quinoline-3,4(2H,9H)-dione]
MIC (S. aureus ATCC 29213): ≤ 1 µg/mL

COc1c(N2CC[C@H](CN)C2)ccc2c(=O)c3c(=O)[nH]sc3n(C3CC3)c12 [Compound 90, (R)-7-(3-(aminomethyl)-pyrrolidin-1-yl)-9-cyclopropyl-8-methoxyiso-thiazolo[5,4-b]quinoline-3,4(2H,9H)-dione]
MIC (E. coli ATCC 25922): ≤ 1 µg/mL | MIC (S. aureus ATCC 29213): ≤ 1 µg/mL

CC(C)(C)OC(=O)NC1CCN(c2cc3c(cc2F)c(=O)c2c(=O)[nH]sc2n3C2CC2)C1 (stereo not drawn) [Compound 27, tert-butyl 1-(9-cyclopropyl-6-fluoro-3,4-dioxo-2,3,4,9-tetrahydroiso-thiazolo[5,4-b]quinolin-7-yl)pyrrolidin-3-ylcarbamate]
MIC (E. coli ATCC 25922): ≤ 1 µg/mL | MIC (S. aureus ATCC 29213): ≤ 1 µg/mL

COc1cc2c(=O)c3c(=O)[nH]sc3n(C3CC3)c2c(F)c1N1CC[C@@H](C(C)(C)N)C1 [Compound 83, (R)-7-(3-(2-aminopropan-2-yl)pyrrolidin-1-yl)-9-cyclopropyl-8-fluoro-6-methoxyiso-thiazolo[5,4-b]quinoline-3,4(2H,9H)-dione]
MIC (E. coli ATCC 25922): ≤ 1 µg/mL | MIC (S. aureus ATCC 29213): ≤ 1 µg/mL

COc1c(N2CC[C@@H](C(C)(C)N(C)C)C2)c(F)cc2c(=O)c3c(=O)[nH]sc3n(C3CC3)c12 [Compound 82, (R)-9-cyclo-propyl-7-(3-(2-(dimethyl-amino)propan-2-yl)pyrrolidin-1-yl)-6-fluoro-8-methoxyiso-thiazolo[5,4-b]quinoline-3,4(2H,9H)-dione]
MIC (E. coli ATCC 25922): ≤ 1 µg/mL | MIC (S. aureus ATCC 29213): ≤ 1 µg/mL

O=c1[nH]sc2c1c(=O)c1cc(F)c(N3CCN(CCN4CCOCC4)CC3)cc1n2C1CC1 [Compound 33, 9-cyclopropyl-6-fluoro-7-(4-(2-morpho-linoethyl)piperazin-1-yl)isothia-zolo[5,4-b]quinoline-3,4(2H,9H)-dione]
MIC (E. coli ATCC 25922): ≤ 1 µg/mL | MIC (S. aureus ATCC 29213): ≤ 1 µg/mL

COc1c(N2CC[C@@H]([C@@H](C)N)C2)ccc2c(=O)c3c(=O)[nH]sc3n(C3CC3)c12 [Compound 110, 7-((R)-3-((R)-1-aminoethyl)-pyrrolidin-1-yl)-9-cyclo-propyl-8-methoxyiso-thiazolo[5,4-b]quinoline-3,4(2H,9H)-dione]
MIC (S. aureus ATCC 29213): ≤ 1 µg/mL

O=C1CCN(c2cc3c(cc2F)c(=O)c2c(=O)[nH]sc2n3C2CC2)CC1 [Compound 40, 9-cyclopropyl-6-fluoro-7-(4-oxo-piperidin-1-yl)isothia-zolo[5,4-b]quinoline-3,4(2H,9H)-dione]
MIC (E. coli ATCC 25922): ≤ 1 µg/mL | MIC (S. aureus ATCC 29213): ≤ 1 µg/mL

CC[C@H](NC)[C@@H]1CCN(c2c(F)cc3c(=O)c4c(=O)[nH]sc4n(C4CC4)c3c2OC)C1 [Compound 91, 9-cyclopropyl-6-fluoro-8-methoxy-7-((R)-3-((S)-1-(methylamino)-propyl)pyrrolidin-1-yl)isothia-zolo[5,4-b]quinoline-3,4(2H,9H)-dione]
MIC (S. aureus ATCC 29213): ≤ 1 µg/mL

CN(C)CCN1CCN(c2cc3c(cc2F)c(=O)c2c(=O)[nH]sc2n3C2CC2)CC1 [Compound 32, 9-cyclopropyl-7-(4-(2-(dimethyl-amino)ethyl)piperazin-1-yl)-6-fluoroiso-thiazolo[5,4-b]quinoline-3,4(2H,9H)-dione]
MIC (E. coli ATCC 25922): ≤ 1 µg/mL | MIC (S. aureus ATCC 29213): ≤ 1 µg/mL

O=c1[nH]sc2c1c(=O)c1cc(F)c(N3CCC(O)CC3)cc1n2C1CC1 [Compound 41, 9-cyclopropyl-6-fluoro-7-(4-hydroxy-piperidin-1-yl)isothia-zolo[5,4-b]quinoline-3,4(2H,9H)-dione]
MIC (E. coli ATCC 25922): ≤ 1 µg/mL | MIC (S. aureus ATCC 29213): ≤ 1 µg/mL

O=c1[nH]sc2c1c(=O)c1cc(F)c(N3CCCCC3)cc1n2C1CC1 [Compound 23, 9-cyclopropyl-6-fluoro-7-(piperidin-1-yl)isothia-zolo[5,4-b]quinoline-3,4(2H,9H)-dione]
MIC (S. aureus ATCC 29213): ≤ 1 µg/mL

CN(C(=O)OC(C)(C)C)C1CCN(c2cc3c(cc2F)c(=O)c2c(=O)[nH]sc2n3C2CC2)C1 (stereo not drawn) [Compound 25, tert-butyl 1-(9-cyclopropyl-6-fluoro-3,4-dioxo-2,3,4,9-tetrahydroiso-thiazolo[5,4-b]quinolin-7-yl)pyrrolidin-3-yl(methyl) carbamate]
MIC (S. aureus ATCC 29213): ≤ 1 µg/mL

CCn1c2s[nH]c(=O)c2c(=O)c2cc(F)c(N3CCNCC3)c(OC)c21 [Compound 62, 9-ethyl-6-fluoro-8-methoxy-7-(piperazin-1-yl)isothia-zolo[5,4-b]quinoline-3,4(2H,9H)-dione]
MIC (S. aureus ATCC 29213): ≤ 1 µg/mL

COc1c(N2CC[C@@H](C(C)NC3CCCC3)C2)c(F)cc2c(=O)c3c(=O)[nH]sc3n(C3CC3)c12 (stereo partly drawn) [Compound 113, (R)-7-(3-(1-(cyclopentyl-amino)ethyl)pyrrolidin-1-yl)-9-cyclopropyl-6-fluoro-8-methoxyiso-thiazolo[5,4-b]quinoline-3,4(2H,9H)-dione]
MIC (S. aureus ATCC 29213): ≤ 1 µg/mL

O=c1[nH]sc2c1c(=O)c1cc(F)c(N3CCCC3)cc1n2C1CC1 [Compound 24, 9-cyclopropyl-6-fluoro-7-(pyrrolidin-1-yl)isothia-zolo[5,4-b]quinoline-3,4(2H,9H)-dione]
MIC (S. aureus ATCC 29213): ≤ 1 µg/mL

CN[C@@H]1CCN(c2ccc3c(=O)c4c(=O)[nH]sc4n(C4CC4)c3c2OC)C1 [Compound 99, (R)-9-cyclo-propyl-8-methoxy-7-(3-(methyl-amino)-pyrrolidin-1-yl)iso-thiazolo[5,4-b]quinoline-3,4(2H,9H)-dione]
MIC (S. aureus ATCC 29213): ≤ 1 µg/mL

COc1c(N2CCC(N)(CO)C2)c(F)cc2c(=O)c3c(=O)[nH]sc3n(C3CC3)c12 (stereo not drawn) [Compound 109, 7-(3-amino-3-(hydroxy-methyl)-pyrrolidin-1-yl)-9-cyclo-propyl-6-fluoro-8-methoxyiso-thiazolo[5,4-b]quinoline-3,4(2H,9H)-dione]
MIC (S. aureus ATCC 29213): ≤ 1 µg/mL

COc1c(N2CC[C@@H](N)C2)c(F)cc2c(=O)c3c(=O)[nH]sc3n(C3CC3)c12 [Compound 96, (R)-7-(3-amino-pyrrolidin-1-yl)-9-cyclopropyl-6-fluoro-8-methoxyiso-thiazolo[5,4-b]quinoline-3,4(2H,9H)-dione]
MIC (S. aureus ATCC 29213): ≤ 1 µg/mL

COc1cc2c(=O)c3c(=O)[nH]sc3n(C3CC3)c2c(F)c1N1CCNCC1 [Compound 84, 9-cyclopropyl-8-fluoro-6-methoxy-7-(piperazin-1-yl)isothia-zolo[5,4-b]quinoline-3,4(2H,9H)-dione]
MIC (E. coli ATCC 25922): ≤ 1 µg/mL

COc1c(N2CC[C@H](C(C)(C)N)C2)ccc2c(=O)c3c(=O)[nH]sc3n(C3CC3)c12 [Compound 60, (S)-7-(3-(2-aminopropan-2-yl)pyrrolidin-1-yl)-9-cyclopropyl-8-methoxyiso-thiazolo[5,4-b]quinoline-3,4(2H,9H)-dione]
MIC (S. aureus ATCC 29213): ≤ 1 µg/mL

CN[C@@H]1CCN(c2c(F)cc3c(=O)c4c(=O)[nH]sc4n(C4CC4)c3c2OC)C1 [Compound 98, (R)-9-cyclo-propyl-6-fluoro-8-methoxy-7-(3-(methylamino)-pyrrolidin-1-yl)isothia-zolo[5,4-b]quinoline-3,4(2H,9H)-dione]
MIC (S. aureus ATCC 29213): ≤ 1 µg/mL

COc1c(N2CC[C@@H](N)C2)ccc2c(=O)c3c(=O)[nH]sc3n(C3CC3)c12 [Compound 97, (R)-7-(3-amino-pyrrolidin-1-yl)-9-cyclopropyl-8-methoxyiso-thiazolo[5,4-b]quinoline-3,4(2H,9H)-dione]
MIC (S. aureus ATCC 29213): ≤ 1 µg/mL
